# From patent publication US20240114902A1, “COMPOSITIONS AND METHODS FOR DETERRING OVIPOSITION BY FRUIT FLIES” (The United States of America, as represented by The …, priority 2022, published 2024)
# Legend:
# [1] = tested on: melon fly (Zeugodacus cucurbitae); assay: Additional fatty acids: melon fly two-choice oviposition bioassay on pumpkin juice agar; type: in vivo; settings: 20 mg, 24 hours
# Method: (§1) Oviposition bioassays were conducted using laboratory two-choice cage experiments with pumpkin juice-infused agar (for Melon fly) and guava juice-infused agar (for OFF) as oviposition substrate. The agar plates were prepared by pouring 10 mL of boiled agar mixture [1000 mL distilled water, 500 mL pumpkin or guava juice, 10 g agar, 0.6 g methylparaben, 6.7 mL 95% ethanol, and 3 mL acetic acid] into a small petri dish (60 mm×15 mm). The agar was then covered with a lid to avoid desiccation. The two-choice oviposition bioassay was conducted in screened cages using 20 mated melon fly or OFF females per cage (14-18 day-old; Jang et al.; Supra) over 24 hours. Each cage was provided with a ball of water-saturated cotton and sugar+protein hydrolysate mixture in separate 30 mL deli cups, and two agar plates-one treated with one of the test compounds (C4:0 (Butyric acid), C5:0 (Valeric acid), C6:0 (Caproic acid), C7:0 (Enanthic acid), C9:0 (Pelargonic acid), C11:0 (Undecylic acid), C13:0 (Tridecylic acid), C15:0 (Pentadecylic acid), C17:0 (Margaric acid), or C19:0 (Nonadecylic acid)) diluted in ethanol and the other treated with the ethanol which served as a control. The agar plates were surface-treated either with 200 μL of ethanol (control) or 200 μL of one of tested compounds diluted at 20 mg/200 μL of ethanol, placed into a fume hood for 10 minutes to evaporate solvents prior to be used in bioassays, and positioned upside-down (i.e. treated side down) on the center of the outside top of the screened cage 17 cm apart from each other (i.e. one each of control and treated), allowing female flies to oviposit on pumpkin (for melon fly) or guava juice (for OFF) agar from the bottom through the cage screen. After 24 hours, melon fly and OFF eggs in the agar were gently separated from the agar in water and the number of eggs were individually counted. The experiment was replicated five times per treatment.
# oriental fruit fly (OFF) = assay: Additional fatty acids: OFF two-choice oviposition bioassay on guava juice agar, 24 hours; type: in vivo, Bactrocera dorsalis; settings: individual compound, 20 mg dose
# Method: as §1
# Bactrocera dorsalis = assay: B. dorsalis spatial deterrence, two-choice traps baited with guava juice; type: in vivo; settings: tested individually
# Method: In addition to CFA, a series of odd-numbered carbon fatty acids (C9:0 to C17:0) and fatty acid methyl esters were evaluated for the spatial deterrence to B. dorsalis that results in oviposition reduction. Table 3 below lists the fatty acid methyl esters tested for spatial repellency for Bactrocera dorsalis. […] FIG. 16A, FIG. 16C, FIG. 16E, FIG. 16G, FIG. 16I, FIG. 16K, FIG. 16M, FIG. 16O, FIG. 16Q, and FIG. 16S show the mean numbers (±SEM) of mated female B. dorsalis flies captured, and FIG. 16B, FIG. 16D, FIG. 16F, FIG. 16H, FIG. 16J, FIG. 16L, FIG. 16N, FIG. 16P, FIG. 16R, and FIG. 16T show the number of B. dorsalis eggs oviposited in traps baited with guava juice (control) and with guava juice plus one of the coconut fatty acid methyl ester compounds in two-choice bioassays. For each test, different letter on the bar indicate a significant difference by Tukey-Kramer tests at P<0.05, n=4.
# Zeugodacus cucurbitae = assay: Spatial repellency of fatty acid methyl esters, two-choice traps with pumpkin juice; type: in vivo; settings: 100 μL doses
# Excerpt: The methods used to test the repellency of fatty acid methyl esters for OFF described above were used in this Example, with minor modifications. The only difference was that pumpkin juice was used as attractant in traps. Melon flies used in this study were from melon fly colony at the U.S Pacific Basin Agricultural Research Center in Hilo, Hawaii, which were maintained on a standard larval diet containing wheat, sugar, and yeast (Tanaka at al., Supra). Chemicals tested were C8:0ME (Methyl octanoate), C10:0ME (Methyl decanoate), C12:0ME (Methyl laurate), C14:0ME (Methyl tetradecanoate), C16:0ME (Methyl palmitate), C18:0ME (Methyl stearate), C18:1ME (Methyl Oleate), and C18:2 (Methyl linoleate).
# [2] = tested on: Bactrocera dorsalis (OFF); assay: OFF two-choice cage oviposition bioassay on guava juice-infused agar; type: in vivo; settings: individual compound, 20 mg/agar
# Method: Evaluation of oviposition deterrence of CFA: OFF oviposition bioassays were conducted using laboratory two-choice cage experiments with guava juice-infused agar as an oviposition substrate. The agar plates were prepared by pouring 30 mL of boiled agar mixture [1000 mL distilled water, 500 mL guava juice (Deans Foods, El Paso, Texas, USA), 10 g agar, 0.6 g methylparaben, 6.7 mL 95% ethanol, and 3 mL acetic acid] into a 30 mL deli plastic cup to gel. The agar was then covered with a lid to avoid desiccation. The two-choice oviposition bioassay was conducted in screened cages using 20 mated OFF females per cage (12-18 day-old; Jang E B et al., 1997, “Attraction of female oriental fruit fly, Bactrocera dorsalis, to volatile semiochemicals from leaves and extracts of a non-host plant, Panax (Polyscias guilfoylei) in laboratory and olfactometer assays,” J. Chem. Ecol. 23:1389-1401) over 3 days. Each cage was provided with a ball of water-saturated cotton, sugar, and protein hydrolysate in separate 30 mL deli cups and two guava juice agar plates-one treated with CFA diluted in hexane and the other treated with the hexane control. The agar plates were surface-treated either with 200 μL of hexane or 200 μL of CFA in one of 4 doses tested (20, 2, 0.2, and 0.02 mg/200 μL of hexane), placed into a fume hood for 10 minutes prior to use in bioassays, and positioned upside-down (i.e., treated side down) on the center of the outside top of the screened cage 17 cm apart from each other (i.e., one each of control and CFA treated), allowing female flies to oviposit on guava juice agar from the bottom through the cage screen. After three days, OFF eggs in the guava agar were gently separated from the agar in water and the number of eggs were individually counted (up to 100 eggs) or estimated volumetrically at 1 mL OFF eggs=20,000 eggs (Stephanie Gayle personal communication). The experiment was replicated six times per treatment. Determination of bioactive oviposition deterrent components from CFA: A series of bioassays was conducted to identify key deterrent components of CFA for OFF using the same two-choice bioassay design described above. […] Ethanol was used as control and for preparing dilutions of C16:0 and C18:0. Hexane was used as control and for dilutions of the other six compounds tested. Based on the outcome of these bioassays, the eight free fatty acid components were assigned to “OFF negative” (i.e., oviposition reduced), “OFF neutral” (i.e., no effect on oviposition), and “OFF positive” (i.e., oviposition increased) compound groups. Using these groupings, four different blends were formulated (indicated in Table 1), composed at the equivalent ratios and concentrations of each component found in CFA (Zhu J J et al., 2018, supra), to determine key bioactive CFA components in terms of oviposition deterrence on OFF. The approach involved testing the bioactivity of the OFF negative-component blend (4c blend) for oviposition deterrence at three different doses (2, 0.2, and 0.02 mg CFA equivalent/agar), first comparing with hexane control, then with CFA at respective equivalent doses. As the 4c blend was not as effective as CFA, a “OFF negative+OFF neutral” component blend (6c blend) was then formulated, and its effect compared with CFA at 2 and 0.2 mg CFA equivalent/agar. Two subtraction blends with one of the two OFF neutral components removed from the 6c blend (5c-i and 5c-ii blends) were formulated and compared with the 6c blend at 2 and 0.2 mg CFA equivalent/agar. The experiment was replicated four to six times per treatment.
smiles,measurement,setting,value
"CCCC(=O)O [C4:0, Butyric acid]",effect on melon fly oviposition vs control,[1],did not affect melon fly oviposition
same,effect on OFF oviposition,oriental fruit fly (OFF),did not affect OFF oviposition
"CCCCC(=O)O [C5:0, Valeric acid]",fewer melon fly eggs on treated pumpkin juice agar vs control agar,[1],72.5%
same,effect on OFF oviposition,oriental fruit fly (OFF),did not affect OFF oviposition
"CCCCCC(=O)O [C6:0, Caproic acid]",effect on melon fly oviposition vs control,[1],increased melon fly oviposition
same,effect on OFF oviposition,oriental fruit fly (OFF),did not affect OFF oviposition
"CCCCCCC(=O)O [C7:0, Enanthic acid]",effect on melon fly oviposition vs control,[1],increased melon fly oviposition
same,effect on OFF oviposition,oriental fruit fly (OFF),did not affect OFF oviposition
same,effect on female B. dorsalis attraction and oviposition to host fruit odors,Bactrocera dorsalis,significantly reduced
"CCCCCCCC(=O)OC [C8:0 ME, Methyl caprylate]",effect on female B. dorsalis attraction and oviposition to host fruit odors,Bactrocera dorsalis,significantly reduced
same,fewer Z. cucurbitae captured in traps baited with FAME vs control,Zeugodacus cucurbitae,97.1%
"CCCCCCCCC(=O)O [C9:0, Pelargonic acid]",effect on melon fly oviposition vs control,[1],did not affect melon fly oviposition
same,effect on OFF oviposition vs control agar,[2],significantly reduced
same,effect on female B. dorsalis attraction and oviposition to host fruit odors,Bactrocera dorsalis,significantly reduced
"CCCCCCCCCC(=O)OC [C10:0 ME, Methyl caprate]",effect on female B. dorsalis attraction and oviposition to host fruit odors,Bactrocera dorsalis,significantly reduced
same,fewer Z. cucurbitae captured in traps baited with FAME vs control,Zeugodacus cucurbitae,76.0%
"CCCCCCCCCCCC(=O)OC [C12:0 ME, Methyl laurate]",effect on female B. dorsalis attraction and oviposition to host fruit odors,Bactrocera dorsalis,significantly reduced
same,fewer Z. cucurbitae captured in traps baited with FAME vs control,Zeugodacus cucurbitae,55.5%
"CCCCCCCCCCCCC(=O)O [C13:0, Tridecylic acid]",fewer melon fly eggs on treated pumpkin juice agar vs control agar,[1],75.7%
same,effect on OFF oviposition vs control agar,[2],significantly reduced
"CCCCCCCCCCCCCC(=O)OC [C14:0 ME, Methyl myristate]",effect on melon fly behavior,Zeugodacus cucurbitae,did not affect melon fly behavior
"CCCCCCCCCCCCCCC(=O)O [C15:0, Pentadecylic acid]",effect on melon fly oviposition vs control,[1],increased melon fly oviposition
"CCCCCCCCCCCCCCCC(=O)OC [C16:0 ME, Methyl palmitate]",effect on melon fly behavior,Zeugodacus cucurbitae,did not affect melon fly behavior
"CCCCCCCCCCCCCCCCC(=O)O [C17:0, Margaric acid]",effect on melon fly oviposition vs control,[1],increased melon fly oviposition
"CCCCCCCCCCCCCCCCCC(=O)OC [C18:0ME, Methyl stearate]",effect on melon fly behavior,Zeugodacus cucurbitae,did not affect melon fly behavior
"CCCCCCCC/C=C\CCCCCCCC(=O)OC [C18:1ME, Methyl Oleate]",fewer Z. cucurbitae captured in traps baited with FAME vs control,Zeugodacus cucurbitae,91.8%
"CCCCC/C=C\C/C=C\CCCCCCCC(=O)OC [C18:2ME, Methyl linoleate]",effect on melon fly behavior,Zeugodacus cucurbitae,did not affect melon fly behavior
"CCCCCCCCCCCCCCCCCCC(=O)O [C19:0, Nonadecylic acid]",effect on melon fly oviposition vs control,[1],did not affect melon fly oviposition
